Patent publication US20250122219A1 (priority 2023, published 2025)
Where two headings read alike, the source gives them in different places.

Experiments:
HIV-1 (IIIB) = test: Antiviral assay in MT-4 cells; type: cell-based
In short: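 Read-out: CellTiter-Glo luminescence after 5 days at 37 °C, reflecting survival of MT-4 cells infected with HIV-1 IIIB (1:250 fresh stock dilution) versus mock-infected. Compounds serially diluted into RPMI with 10% FBS; AZT at 5 μM served as positive control.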

[1] = Cytotoxicity assay in MT-4 cells; type: cell-based; conditions: human; uninfected MT-4 cells, 5 days incubation, Cell Titer Glo; read-out: MT4 CC50
In short: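 Viability read by Cell Titer Glo luminescence after 5 days at 37 °C. MT-4 cells, not infected, in complete RPMI (10% FBS), received compound dilution series. Base cytotoxicity set with […] puromycin.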

[2] = Human immunodeficiency virus 1, MT4, 120 h, HIV-1 IIIB in MT-4 cells, 5 days incubation, Cell Titer Glo, read-out: MT4 EC50

Row | Compound | EC50 (HIV-1 (IIIB); [2]) | CC50 at 5 days [1] | EC50 (HIV-1 (IIIB); Human immunodeficiency virus 1, IIIB, MT4, 120 h, read-out: MT4 EC50 (nM))
1 | CCCC(=O)OCOc1c2n(cc(C(=O)NCc3ccc(F)cc3F)c1=O)[C@@H]1CN(C2=O)[C@@H](C)CC[C@]12CC(OC)=NO2 [Example 87, (((3′S,5S,7′R)-10′-((2,4-difluorobenzyl)carbamoyl)-3-methoxy-3′-methyl-1′,11′-dioxo-1′,4′,5′,11′-tetrahydro-3′H,4H,7′H-spiro[isoxazole-5,6′-[2,7]methanopyrido[1,2-a][1,4]diazonin]-12′-yl)oxy)methyl butyrate] | 1.8 nM | 16400 nM | 
2 | COCCOCCOCCOCCOCCOCCOCCOC(=O)Oc1c2n(cc(C(=O)NCc3ccc(F)cc3F)c1=O)[C@@H]1CN(C2=O)[C@@H](C)CC[C@]12CC(OC)=NO2 [Example 163, (3′S,5S,7′R)-10′-((2,4-difluorobenzyl)carbamoyl)-3-methoxy-3′-methyl-1′,11′-dioxo-1′,4′,5′,11′-tetrahydro-3′H,4H,7′H-spiro[isoxazole-5,6′-[2,7]methanopyrido[1,2-a][1,4]diazonin]-12′-yl (2,5,8,11,14,17,20-heptaoxadocosan-22-yl) carbonate] | 2.08 nM | 37600 nM | 
3 | CCCCC(=O)OCOc1c2n(cc(C(=O)NCc3ccc(F)cc3F)c1=O)[C@@H]1CN(C2=O)[C@@H](C)CC[C@]12CC(OC)=NO2 [Example 89, (((3′S,5S,7′R)-10′-((2,4-difluorobenzyl)carbamoyl)-3-methoxy-3′-methyl-1′,11′-dioxo-1′,4′,5′,11′-tetrahydro-3′H,4H,7′H-spiro[isoxazole-5,6′-[2,7]methanopyrido[1,2-a][1,4]diazonin]-12′-yl)oxy)methyl pentanoate] | 0.2 nM | 15800 nM | 
4 | CC1=NO[C@@]2(CC[C@H](C)N3C[C@H]2n2cc(C(=O)NCc4ccc(F)cc4F)c(=O)c(OC(=O)OCC(C)C)c2C3=O)C1 [Example 148, (3′S,5S,7′R)-10′-((2,4-difluorobenzyl)carbamoyl)-3,3′-dimethyl-1′,11′-dioxo-1′,4′,5′,11′-tetrahydro-3′H,4H,7′H-spiro[isoxazole-5,6′-[2,7]methanopyrido[1,2-a][1,4]diazonin]-12′-yl isobutyl carbonate] | 1.85 nM | 16100 nM | 
5 | CCC(=O)Oc1c2n(cc(C(=O)NCc3ccc(F)cc3F)c1=O)[C@@H]1CN(C2=O)[C@@H](C)CC[C@]12CC(OC)=NO2 [Example 32, (3′S,5S,7′R)-10′-((2,4-difluorobenzyl)carbamoyl)-3-methoxy-3′-methyl-1′,11′-dioxo-1′,4′,5′,11′-tetrahydro-3′H,4H,7′H-spiro[isoxazole-5,6′-[2,7]methanopyrido[1,2-a][1,4]diazonin]-12′-yl propionate] | 1.18 nM | 31700 nM | 
6 | CCCCCCCCC(=O)OCOc1c2n(cc(C(=O)NCc3ccc(F)cc3F)c1=O)[C@@H]1CN(C2=O)[C@@H](C)CC[C@]12CC(C)=NO2 [Example 98, (((3′S,5S,7′R)-10′-((2,4-difluorobenzyl)carbamoyl)-3,3′-dimethyl-1′,11′-dioxo-1′,4′,5′,11′-tetrahydro-3′H,4H,7′H-spiro[isoxazole-5,6′-[2,7]methanopyrido[1,2-a][1,4]diazonin]-12′-yl)oxy)methyl nonanoate] | 3.87 nM | ≥ 50000 nM | 
7 | COC1=NO[C@@]2(CC[C@H](C)N3C[C@H]2n2cc(C(=O)NCc4ccc(F)cc4F)c(=O)c(OCOC(=O)OCCCCC(C)C)c2C3=O)C1 [Example 206, (((3′S,5S,7′R)-10′-((2,4-difluorobenzyl)carbamoyl)-3-methoxy-3′-methyl-1′,11′-dioxo-1′,4′,5′,11′-tetrahydro-3′H,4H,7′H-spiro[isoxazole-5,6′-[2,7]methanopyrido[1,2-a][1,4]diazonin]-12′-yl)oxy)methyl (5-methylhexyl) carbonate] | 2.44 nM | 37200 nM | 
8 | CC(=O)OCOc1c2n(cc(C(=O)NCc3ccc(F)cc3F)c1=O)[C@@H]1CN(C2=O)[C@@H](C)CC[C@]12CC(C)=NO2 [Example 84, (((3′S,5S,7′R)-10′-((2,4-difluorobenzyl)carbamoyl)-3,3′-dimethyl-1′,11′-dioxo-1′,4′,5′,11′-tetrahydro-3′H,4H,7′H-spiro[isoxazole-5,6′-[2,7]methanopyrido[1,2-a][1,4]diazonin]-12′-yl)oxy)methyl acetate] | 3.29 nM | 19900 nM | 
9 | CCCCCCCCOC(=O)OCOc1c2n(cc(C(=O)NCc3ccc(F)cc3F)c1=O)[C@@H]1CN(C2=O)[C@@H](C)CC[C@]12CC(C)=NO2 [Example 178, (((3′S,5S,7′R)-10′-((2,4-difluorobenzyl)carbamoyl)-3,3′-dimethyl-1′,11′-dioxo-1′,4′,5′,11′-tetrahydro-3′H,4H,7′H-spiro[isoxazole-5,6′-[2,7]methanopyrido[1,2-a][1,4]diazonin]-12′-yl)oxy)methyl octyl carbonate] |  | 15800 nM | 2.64 nM
10 | CCCCCC(=O)Oc1c2n(cc(C(=O)NCc3ccc(F)cc3F)c1=O)[C@@H]1CN(C2=O)[C@@H](C)CC[C@]12CC(OC)=NO2 [Example 36, (3′S,5S,7′R)-10′-((2,4-difluorobenzyl)carbamoyl)-3-methoxy-3′-methyl-1′,11′-dioxo-1′,4′,5′,11′-tetrahydro-3′H,4H,7′H-spiro[isoxazole-5,6′-[2,7]methanopyrido[1,2-a][1,4]diazonin]-12′-yl hexanoate] | 0.345 nM | 19600 nM | 
11 | CCCCCCCCCCCCCCCCCC(=O)OCOc1c2n(cc(C(=O)NCc3ccc(F)cc3F)c1=O)[C@@H]1CN(C2=O)[C@@H](C)CC[C@]12CC(OC)=NO2 [Example 106, (((3′S,5S,7′R)-10′-((2,4-difluorobenzyl)carbamoyl)-3-methoxy-3′-methyl-1′,11′-dioxo-1′,4′,5′,11′-tetrahydro-3′H,4H,7′H-spiro[isoxazole-5,6′-[2,7]methanopyrido[1,2-a][1,4]diazonin]-12′-yl)oxy)methyl stearate] | 27.2 nM | ≥ 50000 nM | 
12 | CCCCCCCCCC(=O)OCOc1c2n(cc(C(=O)NCc3ccc(F)cc3F)c1=O)[C@@H]1CN(C2=O)[C@@H](C)CC[C@]12CC(OC)=NO2 [Example 99, (((3′S,5S,7′R)-10′-((2,4-difluorobenzyl)carbamoyl)-3-methoxy-3′-methyl-1′,11′-dioxo-1′,4′,5′,11′-tetrahydro-3′H,4H,7′H-spiro[isoxazole-5,6′-[2,7]methanopyrido[1,2-a][1,4]diazonin]-12′-yl)oxy)methyl decanoate] | 0.471 nM | ≥ 50000 nM | 
13 | CC/C=C\C/C=C\C/C=C\C/C=C\C/C=C\CCCC(=O)Oc1c2n(cc(C(=O)NCc3ccc(F)cc3F)c1=O)[C@@H]1CN(C2=O)[C@@H](C)CC[C@]12CC(OC)=NO2 [Example 69, (3′S,5S,7′R)-10′-((2,4-difluorobenzyl)carbamoyl)-3-methoxy-3′-methyl-1′,11′-dioxo-1′,4′,5′,11′-tetrahydro-3′H,4H,7′H-spiro[isoxazole-5,6′-[2,7]methanopyrido[1,2-a][1,4]diazonin]-12′-yl (5Z,8Z,11Z,14Z,17Z)-icosa-5,8,11,14,17-pentaenoate] | 0.54 nM | 42200 nM | 
